Four molecules from patent US10165772B2, “Methods and compounds for increasing red blood cell survival” (priority 2008, dated 2019) can be followed below.

Common to all, as to type: cell-based
In experiment [1] the test system is human red blood cell (RBC). The experiment in a line: Human RBC survival in vitro in RPMI 1640, viable/dead cells by flow cytometry (FSC/SSC). To be noted: for protecting effect on RBCs (survival versus vehicle control): 100 μM, RPMI 1640; for RBC survival as compared to RBCs cultured in the presence of buffer only: 7 days at 37° C., 1, 10, 100 μM tested (FIG. 13). How it is done: RBCs were incubated in vitro at 37° C., and cells were analyzed by flow cytometry for assessment of the relative proportions of dead and viable cells. Forward scatter (FSC)/side scatter (SSC) dot plots of RBCs incubated in the presence or absence of 5-HT (100 μM) are shown in (A) to (E) for the indicated time points. Two main regions of analysis are set, R1 (left box) and R2 (right box), corresponding to dead and viable RBCs, respectively. The proportion of viable cells remaining at each time-point is indicated next to the R2 region (upper right in the dot plots). (F) Typical concentration-dependent effects of 5-HT (0-100 μM) on RBCs incubated for different periods of time;
RBCs were incubated for various lengths of time in the RPMI 1640 medium at 37° C. (A), at room temperature (21 to 23° C.) (B), or at 4° C. (C). 5-HT (100 μM, black circles) or vehicle control (white circles) was added before incubation at Day 0, and cell viability was assessed by flow cytometry at several times as indicated;
RBCs were incubated for 7 days at 37° C. in the presence or absence of different concentrations of the indicated indole compounds (white bars =1 μM; grey bars=10 μM; black bars:100 μM). As a control, RBCs were incubated in the presence of the appropriate buffer (without the compounds). RBCs survival in the presence of a given compound is expressed as the percentage of survival relative to the control.
Red blood cells isolation. Venous blood was drawn from healthy volunteers, and RBCs were isolated by centrifugation at 800 rpm to remove platelet-rich plasma, and white blood cells. The resulting pellet of RBCs was washed three times in NaCl 0.9% by centrifugation at 3000 rpm. RBCs were incubated at 37° C., 5% CO2 in 24-well microplates at a concentration of 1x10^6 cells/ml in RPMI 1640 medium without phenol red containing HEPES/NaOH (pH 7.4) and penicillin (100 U/ml)/streptomycin ([…]).
(§1) Cell culture. Drugs [serotonin (Catalog No. H9525), melatonin (Catalog No. M5250), pindolol (Catalog No. P0778) and indomethacin (Catalog No. 18280)] were all purchased from Sigma-Aldrich. They were added at the indicated concentrations at the beginning of cell incubation (Day 0). Cells were harvested at specific time-points and analyzed by flow cytometry (FACScan™, Becton Dickinson) according to forward and side scatters (FSC and SSC, respectively). FSC is proportional to cell size, while SSC is proportional to cell complexity, which may reflect hemoglobin content of RBCs. The relative proportions of viable and dead RBCs were calculated by setting appropriate regions on the dot plots. In some experiments, RBCs were sorted according to FSC and SSC. Cell density was checked routinely by inverted light microscopy, and cell morphology was assessed by May Grünwald-Giemsa staining followed by light microscopy.
In general terms: Flow cytometry measures light scatter and fluorescence of single cells or particles in a stream.

Experiment [2] deals with human RBCs. The experiment in a line: RBC density and morphology by May Grünwald-Giemsa staining and light microscopy. How it is done: (C). Cells were incubated in the presence or absence of 5-HT. The density of RBC suspension and their morphology were assessed by May Grünwald-Giemsa staining;
as §1
To evaluate the morphology of the two populations of RBCs, these cells were sorted by flow cytometry according to their FSC/SSC characteristics, and stained by the May Grünwald-Giemsa method. […] Cells with intermediate amounts of hemoglobin (between normochromic and hypochromic) were also present in the R2 region (FIG. 2, upper right panel). […] At day 7, in the absence of 5-HT, fewer cells were present, and the majority of these cells were hypochromic with cytoplasmic inclusions (FIG. 3B, left panels).

In experiment [3] the test system is human RBCs. The experiment is described as follows: Survival of human RBCs cultured in AS-3 additive solution, flow cytometry. To be noted: 100 μM. How it is done: AS-3 is an additive solution commonly used for storage of RBCs. RBCs were incubated in home-made (A) and commercially available (B) AS-3 solution (Haemonetics, Catalog No. 0460a-00) for various lengths of time at 4° C. in the absence (white circles) or presence (100 μM, black circles) of 5-HT, and cell viability was assessed by flow cytometry at several times as indicated. The home-made AS-3 was prepared in sterile water as follows: Sodium chloride (NaCl, 2.35 g), D-Glucose (Dextrose, 5.5 g), Adenine (0.15 g), Citric Acid (0.21 g), Sodium Phosphate dibasic (Na2HPO4 anhydrous, 1.380 g) were dissolved in 500 ml of sterile water. The pH of the solution was adjusted at 7.39;
as §1, with “They were added at the indicated concentrations at the beginning of cell incubation (Day 0).” left out, “FSC is proportional to cell size, while SSC is proportional to cell complexity, which may reflect hemoglobin content of RBCs.” left out, “In some experiments, RBCs were sorted according to FSC and SSC.” left out
The effect of 5-HT on the survival of human RBCs cultured in AS-3 solution was assessed. […]

In another experiment the test system is mouse RBCs. The experiment is described as follows: Survival of mouse RBCs cultured at 37° C., flow cytometry. To be noted: day 1 to day 7, 0-100 μM. How it is done:
Mouse RBCs were cultured at 37° C. for the indicated periods of time, in the presence of increasing concentrations of 5-HT (0-100 μM). Cell viability was assessed by flow cytometry at day 1 (A), day 2 (B), day 3 (C), day 5 (D) and day 7 (E), and the percentage of viable cells (% of cells in R2) is indicated;
as §1, with “microscopy. […]” for “microscopy.”

Regarding `NCCc1c[nH]c2ccc(O)cc12` [5-HT, serotonin], the “concentration giving optimal effect on RBC viability” value in experiment [1] (0-100 μM tested, 37° C., FIG. 1F) came out at 100 µM. The “protecting effect on RBCs (survival versus vehicle control)” value in experiment [1] (4° C.), in experiment [1] (37° C.) and in experiment [1] (room temperature (21-23° C.)) was “is observed” each time. In addition, in experiment [1] (all time-points (day 0 to 21), 37° C., 5-HT 100 μM), the “percentage of viable RBCs as compared to controls without 5-HT” value is “higher”. For the same molecule, the “RBC morphology (normochromic / hypochromic)” value with human RBCs [2] (91 days at 4° C.) is on record as “normochromic red blood cells are observed”; with human RBCs [2] (day 7, 37° C.), “the majority of these cells were normochromic”. The “number of cells remaining, as judged by cell density” value in the experiment with human RBCs [2] (day 7, 37° C., versus absence of 5-HT) is listed as “a greater number of cells remained”. Further, the “survival of RBCs versus absence of 5-HT” value was “increases the survival” with human RBCs [3] (commercially available AS-3, 4° C.) and “increases the survival” in the experiment on human RBCs [3] (home-made AS-3, 4° C.). Further, in the experiment with mouse RBCs, the “proportion of viable mouse RBCs versus 5-HT-free cultures” value is given as “higher”.

Regarding `COc1ccc2c(c1)c(CC(=O)O)c(C)n2C(=O)c1ccc(Cl)cc1` [indomethacin], the “RBC survival as compared to RBCs cultured in the presence of buffer only” value in experiment [1] is on record as “increased survival”.

For `COc1ccc2[nH]cc(CCNC(C)=O)c2c1` [melatonin], in experiment [1], the “RBC survival as compared to RBCs cultured in the presence of buffer only” value was “increased survival”.

For `CC(C)NCC(O)COc1cccc2[nH]ccc12` (centres unmarked) [pindolol], the “RBC survival as compared to RBCs cultured in the presence of buffer only” value in experiment [1] is reported as “increased survival”.
